From US10808017B2, “Ubiquitin variants and uses therof as 53BP1 inhibitors” (The Governing Council of the University of Toronto, priority 2016, dated 2020)

What was measured:
[1] = tested on: gene targeting at the LMNA locus in U2OS cells; test: LMNA mClover gene targeting assay (CRISPR/Cas9); type: cell-based; settings: parental U2OS cells; NU7441 at 10 μM
Protocol: (§1) FIG. 4. Activation of HR by i53. FIG. 4A, Schematic of the DR-GFP assay. FIG. 4B. U2OS DR-GFP cells were transfected with the vectors expressing i53, the DM mutant or an empty vector control (EV) along with an I-Scel expression vector. The percentage of GFP-positive cells was determined 48 h post-transfection for each condition and was normalized to the empty vector condition (mean±s.d., N=4). FIG. 4C, U2OS DR-GFP were first transfected with siRNAs targeting the 53BP1 or BRCA1 mRNAs along with a non-targeting siRNA (CTRL). 24 h post-transfection, cells were transfected with the I-SceI expression vector and the percentage of GFP-positive cells was determined 48 h post-siRNA transfection for each condition. The values were normalized to the empty vector condition and presented as the mean±s.e.m; N=4. FIG. 4D, Schematic of the gene targeting assay. FIG. 4E, Gene targeting efficiency at the LMNA locus in parental or 53BP1Δ U2OS cells following transfection with vectors expressing Flag-tagged i53 or its DM mutant or an empty vector control (EV). The DNA-PK inhibitor NU7441 was also added where indicated. 24 h post-transfection, cells were analysed for mClover fluorescence. Individual experiments are presented with the error bar representing the s.d., (N=3). FIG. 4F, Gene targeting at the LMNA locus in G 1-arrested parental (WT) or 53BP1Δ U2OS cells transfected with vectors expressing Flag-tagged i53 or its DM mutant or an empty vector control (EV). The DNA-PK inhibitor NU7441 was also added in the indicated conditions. 24 h post-transfection, cells were analysed for mClover fluorescence. Individual experiments are present with the error bar representing the s.d., (N=3).
The Lamin A (LMNA) assay to measure the frequency of introduction of the coding sequence for mClover at the 5′ end of LMNA using the CRISPR/Cas9 was performed as previously described4. Parental or 53BP1Δ U2OS cell lines were transfected with the indicated plasmids using Lipofectamine RNAiMAX (Invitrogen). 24 h later, the cells were electroporated with 2.5 μg of sgRNA plasmids and 2.5 μg of donor template using a Nucleofector (Lonza; protocol X-001). Parental or 53BP1Δ U2OS cells stably expressing CtIP-T847E mutant were transfected with an siRNA against KEAP1 and the indicated plasmids and processed as previously described.

[2] = tested on: gene conversion (HR) in U2OS DR-GFP cells; test: Direct-repeat (DR)-GFP gene conversion assay; type: cell-based, human; settings: SCR7 at 1 μM; i53 by plasmid expression
Protocol: as §1
The direct repeat (DR)-GFP assay to measure the frequency of HR and the strand annealing EJ2-GFP assay to measure the frequency of MMEJ were performed as previously described. Briefly, U2OS DR-GFP or U2OS EJ2-GFP cells were transfected with 10 nM siRNA (Dharmacon) using Lipofectamine RNAiMAX (Invitrogen). 24 h later, the cells were transfected with the pCBASceI plasmid (Addgene #26477) and plasmids, using Lipofectamine 2000 (Invitrogen). 48 h post-plasmid transfection, the cells were trypsinized and the percentage of GFP-expressing cells was analyzed using the BD FACSCalibur flow cytometer.
AAV-293 cells (Agilent) were transfected with pAAV expression, pDJ and pHelper constructs (Cell Biolabs, Inc., USA) in equal amounts using PEI to produce AAV-DJ expression viruses. 48-72 h later, the viral supernatant was used to transduce target cells for 24 h, and assays were initiated a further 24 h later.

[3] = tested on: gene targeting at the LMNA locus in U2OS cells; settings: reference [21]; cited from earlier work

O=c1cc(N2CCOCC2)oc2c(-c3cccc4c3sc3ccccc34)cccc12 [NU7441, 8-dibenzothiophen-4-yl-2-morpholin-4-yl-chromen-4-one, reference compound]
Change of gene targeting at the LMNA locus (in words) [1]: modest increase in gene targeting

c1cnccn1 [SCR7 pyrazine, reference compound]
Gene conversion in DR-GFP assay (comparison in words) [2]: minimal impact

O=c1[nH]c(=S)[nH]c(N=Cc2ccccc2)c1N=Cc1ccccc1 [SCR7, reference compound]
Gene conversion in DR-GFP assay (comparison in words) [2]: minimal impact | Response of gene targeting at the LMNA locus to treatment [3]: not responsive
